Data taken from patent publication US10758534B2 (Vertex Pharmaceuticals Incorporated, priority 2014, dated 2020).

Each molecule was assayed against T1, F508del (Homo sapiens, UniProt P13569, DEL508-508) (assay: Protocol 1: membrane potential optical assay (FLIPR III, voltage sensing dye), identification of potentiator compounds). Conditions: Table 3, compounds of Table 1.
T1 construct: expressed in transfected cells
T1 sequence (P13569 with tags, fused parts or gaps DEL508-508): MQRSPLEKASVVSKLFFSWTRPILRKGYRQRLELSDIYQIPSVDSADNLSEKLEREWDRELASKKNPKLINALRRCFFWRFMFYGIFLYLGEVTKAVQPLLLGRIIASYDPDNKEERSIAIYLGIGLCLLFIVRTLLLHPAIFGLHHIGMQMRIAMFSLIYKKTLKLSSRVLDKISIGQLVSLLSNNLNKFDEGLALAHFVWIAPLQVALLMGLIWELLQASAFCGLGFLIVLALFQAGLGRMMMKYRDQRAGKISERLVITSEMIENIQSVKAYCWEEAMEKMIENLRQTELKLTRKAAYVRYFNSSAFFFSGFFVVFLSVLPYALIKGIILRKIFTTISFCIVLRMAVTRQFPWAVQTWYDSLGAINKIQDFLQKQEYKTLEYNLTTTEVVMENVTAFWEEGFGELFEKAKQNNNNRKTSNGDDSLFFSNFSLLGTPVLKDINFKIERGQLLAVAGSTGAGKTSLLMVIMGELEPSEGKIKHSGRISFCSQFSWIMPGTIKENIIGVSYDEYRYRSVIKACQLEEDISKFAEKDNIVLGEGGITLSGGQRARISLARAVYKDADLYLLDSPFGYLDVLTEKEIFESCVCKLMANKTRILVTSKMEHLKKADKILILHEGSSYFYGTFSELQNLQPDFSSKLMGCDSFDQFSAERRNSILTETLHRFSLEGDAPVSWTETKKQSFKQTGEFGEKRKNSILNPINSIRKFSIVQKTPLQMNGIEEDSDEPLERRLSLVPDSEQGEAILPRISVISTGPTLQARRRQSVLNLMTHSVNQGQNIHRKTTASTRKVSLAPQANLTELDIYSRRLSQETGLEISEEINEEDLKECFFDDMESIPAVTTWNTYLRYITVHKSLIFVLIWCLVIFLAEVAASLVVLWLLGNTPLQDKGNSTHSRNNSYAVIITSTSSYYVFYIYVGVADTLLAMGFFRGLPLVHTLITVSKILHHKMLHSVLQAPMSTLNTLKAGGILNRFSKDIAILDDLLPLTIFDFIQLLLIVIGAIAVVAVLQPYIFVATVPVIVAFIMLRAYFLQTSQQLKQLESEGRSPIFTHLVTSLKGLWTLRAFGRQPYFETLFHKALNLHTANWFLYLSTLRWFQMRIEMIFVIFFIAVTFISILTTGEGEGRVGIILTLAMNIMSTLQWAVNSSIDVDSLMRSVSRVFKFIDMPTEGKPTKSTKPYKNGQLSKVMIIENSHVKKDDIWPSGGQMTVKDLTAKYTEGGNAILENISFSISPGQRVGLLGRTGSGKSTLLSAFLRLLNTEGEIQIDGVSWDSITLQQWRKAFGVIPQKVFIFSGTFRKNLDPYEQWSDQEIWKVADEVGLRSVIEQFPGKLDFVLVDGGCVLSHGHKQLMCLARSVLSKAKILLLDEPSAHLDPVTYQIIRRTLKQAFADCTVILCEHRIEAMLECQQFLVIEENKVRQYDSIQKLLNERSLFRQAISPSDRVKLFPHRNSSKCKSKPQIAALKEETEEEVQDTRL
Format: cell-based
Outline: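 Read-out: change in voltage-sensing dye fluorescence (FLIPR III) as a measure of F508del conductance. Temperature-corrected (27° C, 24 hrs) NIH 3T3 cells expressing F508del are pretreated with potentiators, dye-loaded, then stimulated with forskolin under a chloride ion gradient using chloride-free gluconate bath.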
For `C[C@@H]1CN(c2nc(-c3cccc(OC(F)(F)F)c3)ccc2C(=O)NS(=O)(=O)c2ccc[nH]c2=O)C(C)(C)C1` [Compound 1934, N-[(2-oxo-1H-pyridin-3-yl)sulfonyl]-6-[3-(trifluoromethoxy)phenyl]-2-[(4S)-2,2,4-trimethylpyrrolidin-1-yl]pyridine-3-carboxamide], the EC30 was “+++ (“+++” means <3 uM)”. With `CC(C)COc1cc(F)cc(-c2ccc(C(=O)NS(=O)(=O)c3ccn[nH]3)c(N3CCCC3C)n2)c1` (stereo not shown) [Compound 1142, 6-(3-fluoro-5-isobutoxy-phenyl)-2-(2-methylpyrrolidin-1-yl)-N-(1H-pyrazol-5-ylsulfonyl)pyridine-3-carboxamide] the EC30 was “++ (“++” means between 3 uM and 10 uM)”. For `Cc1ccc(-c2ccc(C(=O)NS(=O)(=O)c3nccnc3N)c(Oc3c(C)cc(C)cc3C)n2)cc1` [Compound 1047, N-(3-aminopyrazin-2-yl)sulfonyl-6-(p-tolyl)-2-(2,4,6-trimethylphenoxy)pyridine-3-carboxamide], the EC30 was “+++ (“+++” means <3 uM)”. In the case of `CCOc1cccc(-c2ccc(C(=O)NS(=O)(=O)c3ccc[nH]c3=O)c(N3C[C@@H](C)CC3(C)C)n2)c1F` [Compound 1802, 6-(3-ethoxy-2-fluoro-phenyl)-N-[(2-oxo-1H-pyridin-3-yl)sulfonyl]-2-[(4S)-2,2,4-trimethylpyrrolidin-1-yl]pyridine-3-carboxamide], the EC30 is reported as “+++ (“+++” means <3 uM)”. In the case of `Cc1cc(C)c(CN2Cc3ccccc3CCC2C(=O)NS(=O)(=O)c2ccc[nH]c2=O)c(C)c1` (stereo not shown) [Compound 855, N-[(2-oxo-1H-pyridin-3-yl)sulfonyl]-2-[(2,4,6-trimethylphenyl)methyl]-1,3,4,5-tetrahydro-2-benzazepine-3-carboxamide], the EC30 is reported as “+ (“+” means greater than 10 uM)”. `C[C@@H]1CN(c2nc(C(C)(C)C)c(/C=C/C3CC3)cc2C(=O)NS(=O)(=O)c2cccc(N)n2)C(C)(C)C1` [Compound 1665, N-[(6-amino-2-pyridyl)sulfonyl]-6-tert-butyl-5-[(E)-2-cyclopropylvinyl]-2-[(4S)-2,2,4-trimethylpyrrolidin-1-yl]pyridine-3-carboxamide] was tested, and the EC30 was “+++ (“+++” means <3 uM)”. `COc1cccnc1S(=O)(=O)NC(=O)C1(C)c2ccccc2CN1Cc1c(C)cc(C)cc1C` (stereo not shown) [Compound 825, N-[(3-methoxy-2-pyridyl)sulfonyl]-1-methyl-2-[(2,4,6-trimethylphenyl)methyl]isoindoline-1-carboxamide] was tested, and the EC30 was “++ (“++” means between 3 uM and 10 uM)”. In the case of `CCOc1cccc2c1CN(Cc1c(C)cc(C)cc1C)C2(C)C(=O)NS(=O)(=O)c1ccc2c(c1)CCN2` (stereo not shown) [Compound 1422, 4-ethoxy-N-indolin-5-ylsulfonyl-1-methyl-2-[(2,4,6-trimethylphenyl)methyl]isoindoline-1-carboxamide], the EC30 is reported as “+++ (“+++” means <3 uM)”. For `CC(C)COc1ccccc1-c1cnc(N2CC(C)CC2(C)C)c(C(=O)NS(=O)(=O)c2cccc(N)n2)c1` (stereo not shown) [Compound 1979, N-[(6-amino-2-pyridyl)sulfonyl]-5-(2-isobutoxyphenyl)-2-(2,2,4-trimethylpyrrolidin-1-yl)pyridine-3-carboxamide], the EC30 was “+++ (“+++” means <3 uM)”. With `CCC1CC=C(c2ccc(C(=O)NS(=O)(=O)c3cccc(N)n3)c(Oc3c(C)cc(C)cc3C)n2)CC1` (stereo not shown) [Compound 1370, N-[(6-amino-2-pyridyl)sulfonyl]-6-(4-ethylcyclohexen-1-yl)-2-(2,4,6-trimethylphenoxy)pyridine-3-carboxamide] the EC30 was “+++ (“+++” means <3 uM)”. In the case of `CCOCCOc1ccn(-c2ccc(C(=O)NS(=O)(=O)c3cccnc3N)c(N3C[C@@H](C)CC3(C)C)n2)n1` [Compound 1742, N-[(2-amino-3-pyridyl)sulfonyl]-6-[3-(2-ethoxyethoxy)pyrazol-1-yl]-2-[(4S)-2,2,4-trimethylpyrrolidin-1-yl]pyridine-3-carboxamide], the EC30 is reported as “+++ (“+++” means <3 uM)”. For `CC(C)COc1cc(F)cc(-c2ccc(C(=O)NS(=O)(=O)c3cccc(N)n3)c(OC3CC3)n2)c1` [Compound 1446, N-[(6-amino-2-pyridyl)sulfonyl]-2-(cyclopropoxy)-6-(3-fluoro-5-isobutoxy-phenyl)pyridine-3-carboxamide], the EC30 was “+++ (“+++” means <3 uM)”. In the case of `Cc1ccc(Oc2nc3c(cc2C(=O)NS(=O)(=O)c2nccnc2N)CCCC3(C)C)c(C)c1` [Compound 1239, N-(3-aminopyrazin-2-yl)sulfonyl-2-(2,4-dimethylphenoxy)-8,8-dimethyl-6,7-dihydro-5H-quinoline-3-carboxamide], the EC30 is reported as “+++ (“+++” means <3 uM)”. For `CC(C)COc1cc(F)cc(-c2ccc(C(=O)NS(=O)(=O)c3cccc(N)n3)c(N3CCCCC(C)(C)C3)n2)c1` [Compound 1901, N-[(6-amino-2-pyridyl)sulfonyl]-2-(3,3-dimethylazepan-1-yl)-6-(3-fluoro-5-isobutoxy-phenyl)pyridine-3-carboxamide], the EC30 was “+++ (“+++” means <3 uM)”. In the case of `CC1CN(c2ncccc2C(=O)NS(=O)(=O)c2cccc(OC3CCCC3)n2)C(C)(C)C1` (stereo not shown) [Compound 1834, N—[[6-(cyclopentoxy)-2-pyridyl]sulfonyl]-2-(2,2,4-trimethylpyrrolidin-1-yl)pyridine-3-carboxamide], the EC30 is reported as “+++ (“+++” means <3 uM)”. With `Cc1cc(C)c(CN2CCc3ccccc3CC2C(=O)NS(=O)(=O)c2cccc(N)n2)c(C)c1` (stereo not shown) [Compound 1055, N-[(6-amino-2-pyridyl)sulfonyl]-3-[(2,4,6-trimethylphenyl)methyl]-1,2,4,5-tetrahydro-3-benzazepine-4-carboxamide] the EC30 was “++ (“++” means between 3 uM and 10 uM)”. In the case of `CCOc1ccc(-c2ccc(C(=O)NS(=O)(=O)c3nccnc3N)c(NCC3(C)CCOCC3)n2)cc1` [Compound 1203, N-(3-aminopyrazin-2-yl)sulfonyl-6-(4-ethoxyphenyl)-2-[(4-methyltetrahydropyran-4-yl)methylamino]pyridine-3-carboxamide], the EC30 is reported as “+ (“+” means greater than 10 uM)”. For `COc1cccc(-c2ccc(C(=O)NS(=O)(=O)c3ccc[nH]c3=O)c(N3C[C@@H](C)CC3(C)C)n2)c1` [Compound 1927, 6-(3-methoxyphenyl)-N-[(2-oxo-1H-pyridin-3-yl)sulfonyl]-2-[(4S)-2,2,4-trimethylpyrrolidin-1-yl]pyridine-3-carboxamide], the EC30 was “+++ (“+++” means <3 uM)”. For `CCOc1cc(C)cc(-c2ccc(C(=O)NS(=O)(=O)c3cccc(N)n3)c(N3C[C@@H](C)CC3(C)C)n2)c1` [Compound 1488, N-[(6-amino-2-pyridyl)sulfonyl]-6-(3-ethoxy-5-methyl-phenyl)-2-[(4S)-2,2,4-trimethylpyrrolidin-1-yl]pyridine-3-carboxamide], the EC30 was “+++ (“+++” means <3 uM)”. With `CC(C)COc1cc(F)cc(-c2ccc(C(=O)NS(=O)(=O)c3cccc(N)n3)c(N(C)CC3CC3)n2)c1` [Compound 1010, N-[(6-amino-2-pyridyl)sulfonyl]-2-[cyclopropylmethyl(methyl)amino]-6-(3-fluoro-5-isobutoxy-phenyl)pyridine-3-carboxamide] the EC30 was “+++ (“+++” means <3 uM)”. `Cc1cc(C)c(Oc2nc(C3CC(=O)CC(C)(C)C3)ccc2C(=O)NS(=O)(=O)c2cccc(N)n2)c(C)c1` (stereo not shown) [Compound 1492, N-[(6-amino-2-pyridyl)sulfonyl]-6-(3,3-dimethyl-5-oxo-cyclohexyl)-2-(2,4,6-trimethylphenoxy)pyridine-3-carboxamide] was tested, and the EC30 was “++ (“++” means between 3 uM and 10 uM)”. With `CC(C)COc1cc(F)cc(-c2ccc(C(=O)NS(=O)(=O)c3cccc(N)n3)c(OC3C[C@@H]4C[C@@H]4C3)n2)c1` (stereo partly drawn) [Compound 1077, N-[(6-amino-2-pyridyl)sulfonyl]-2-[[(1R,5S)-3-bicyclo[3.1.0]hexanyl]oxy]-6-(3-fluoro-5-isobutoxy-phenyl)pyridine-3-carboxamide] the EC30 was “+++ (“+++” means <3 uM)”. `CC(=O)Nc1cccc(S(=O)(=O)NC(=O)c2ccc(-c3cc(F)cc(OCC(C)C)c3)nc2N2C[C@@H](C)CC2(C)C)n1` [Compound 1652, N-[(6-acetamido-2-pyridyl)sulfonyl]-6-(3-fluoro-5-isobutoxy-phenyl)-2-[(4S)-2,2,4-trimethylpyrrolidin-1-yl]pyridine-3-carboxamide] was tested, and the EC30 was “+++ (“+++” means <3 uM)”. For `Cc1cc(C)c(Oc2nc(C3CC3)ccc2C(=O)NS(=O)(=O)c2cccc(N)n2)c(C)c1` [Compound 1050, N-[(6-amino-2-pyridyl)sulfonyl]-6-cyclopropyl-2-(2,4,6-trimethylphenoxy)pyridine-3-carboxamide], the EC30 was “++ (“++” means between 3 uM and 10 uM)”. For `CC(C)COc1cc(F)cc(-c2ccc(C(=O)NS(=O)(=O)c3cccc(N)n3)c(OCCC3CCCCC3)n2)c1` [Compound 1465, N-[(6-amino-2-pyridyl)sulfonyl]-2-(2-cyclohexylethoxy)-6-(3-fluoro-5-isobutoxy-phenyl)pyridine-3-carboxamide], the EC30 was “+++ (“+++” means <3 uM)”. In the case of `Cc1cc(OCC(C)C)cc(-c2ccc(C(=O)NS(=O)(=O)c3cccc(N)n3)c(N3C[C@@H](C)CC3(C)C)n2)c1` [Compound 1646, N-[(6-amino-2-pyridyl)sulfonyl]-6-(3-isobutoxy-5-methyl-phenyl)-2-[(4 S)-2,2,4-trimethylpyrrolidin-1-yl]pyridine-3-carboxamide], the EC30 is reported as “+++ (“+++” means <3 uM)”. For `CCOc1cccc(-c2ccc(C(=O)NS(=O)(=O)c3cccnc3N)c(N3C[C@@H](C)CC3(C)C)n2)c1F` [Compound 1847, N-[(2-amino-3-pyridyl)sulfonyl]-6-(3-ethoxy-2-fluoro-phenyl)-2-[(4S)-2,2,4-trimethylpyrrolidin-1-yl]pyridine-3-carboxamide], the EC30 was “+++ (“+++” means <3 uM)”. In the case of `Cc1ccc(-c2ccc(C(=O)NS(=O)(=O)c3nccnc3N)c(N3CCC(C)CC3)n2)cc1` [Compound 1084, N-(3-aminopyrazin-2-yl)sulfonyl-2-(4-methyl-1-piperidyl)-6-(p-tolyl)pyridine-3-carboxamide], the EC30 is reported as “++ (“++” means between 3 uM and 10 uM)”.
